Where two headings read alike, the source gives them in different places.
What was measured:
[1] = Experimental maximum plasma concentration of digoxin in patients by MDR1 exon 26 (C3435T) polymorphism; type: in vivo, human; details: type TT versus wild type
Text: The transport protein which has been most widely studied and described in the literature is p-glycoprotein (P-Gp) which, besides other organs, is expressed particularly in the gut where it can have an influence on the absorption of orally applied active agents. The associated gene is generally identified as MDR1. MDR1 may be present in different alleles, it being known that these lead to different activity of the associated protein (see Martin F. Fromm, The influence of MDR1 polymorphisms on P-glycoprotein expression and function in humans, Advanced Drug Delivery Reviews 54, 1295 (2002)). For P-Gp, tables of pharmaceutical active agents which are a substrate for it have been published (see for example C. J. Matheny et al., Pharmacokinetic and Pharmacodynamic Implications of P-glycoprotein Modulation, Pharmacotherapy, 21, 778 (2001)). One example of such a substrate is digoxin.
For instance, the Cmax values (maximum plasma concentration) listed in Table 1 are given for the polymorphism in exon 26 (C3435T).

[2] = human
[3] = 0.25 mg digoxin, cited from earlier work

- experimentally found increase of Cmax [1]: 30%
- clearance [2]: 0.0288 L/h/kg
- Papp ([2]; not told): 14 nm/s
- fraction unbound ([2]; plasma): 0.73
SMILES: C[C@H]1O[C@@H](O[C@H]2[C@@H](O)C[C@H](O[C@H]3[C@@H](O)C[C@H](O[C@H]4CC[C@@]5(C)[C@H](CC[C@@H]6[C@@H]5C[C@@H](O)[C@]5(C)[C@@H](C7=CC(=O)OC7)CC[C@]65O)C4)O[C@@H]3C)O[C@@H]2C)C[C@H](O)[C@@H]1O [digoxin]
- Cmax experiment ([3]; patients with CC (wild type) polymorphism in exon 26 (C3435T) of MDR1, plasma): 1.6 ng/mL
- Cmax experiment ([3]; patients with TT (homozygotic) polymorphism in exon 26 (C3435T) of MDR1, plasma): 2.1 ng/mL
